Measurements reported in US10975068B2, “6-aminopyridin-3-yl thiazoles as modulators of RORγT” (Janssen Pharmaceutica NV, priority 2016, dated 2021).
Where two headings read alike, the source gives them in different places.

How the values were obtained:
[1] = molecular target: human RORγt ligand binding domain (RORγt LBD) (Homo sapiens (Human), UniProt P51449); test: RORγt ThermoFluor® assay (thermal shift binding); details: read-out: ThermoFluor® Assay, Kd
Procedure, shortened: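 Binding was inferred from thermal stabilisation (ΔTm) of the E. coli-expressed RORγt LBD (0.065 mg/mL), monitored by 1,8-ANS (60 μM) emission at 500 nm during a 1 °C/min ramp. Buffer was Hepes 100 mM pH 7.0 with NaCl, GSH and Tween-20.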

[2] = molecular target: full-length human RORγt (Homo sapiens (Human), UniProt P51449); test: RORγt (full-length human) reporter assay, Conditions B or C; type: cell-based; details: for inhibition at 3 µM: at 3 μM compound concentration; for IC50: read-out: RORγt (FL) Reporter Assay B or C, IC50; for RORγt (FL) Reporter Assay B or C, % inhibition (value marked *): marked *: footnote not given
Procedure, shortened: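 Readout is dual luciferase: firefly (GAL4-driven) normalized to DMSO-only and saturating-reference controls, then to CMV-Renilla. Full-length human RORγt fused to GAL4-DBD was transiently expressed in HEK293T; compound exposure ran overnight (16-20 h) starting 4-6 h after transfection, final FBS 1.3%, DMSO 0.1%.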

[3] = read-out: RORγt (FL) Reporter Assay B or C, % inhibition

full-length human RORγt, sequence (P51449 other isoform, or with tags, fused parts or gaps): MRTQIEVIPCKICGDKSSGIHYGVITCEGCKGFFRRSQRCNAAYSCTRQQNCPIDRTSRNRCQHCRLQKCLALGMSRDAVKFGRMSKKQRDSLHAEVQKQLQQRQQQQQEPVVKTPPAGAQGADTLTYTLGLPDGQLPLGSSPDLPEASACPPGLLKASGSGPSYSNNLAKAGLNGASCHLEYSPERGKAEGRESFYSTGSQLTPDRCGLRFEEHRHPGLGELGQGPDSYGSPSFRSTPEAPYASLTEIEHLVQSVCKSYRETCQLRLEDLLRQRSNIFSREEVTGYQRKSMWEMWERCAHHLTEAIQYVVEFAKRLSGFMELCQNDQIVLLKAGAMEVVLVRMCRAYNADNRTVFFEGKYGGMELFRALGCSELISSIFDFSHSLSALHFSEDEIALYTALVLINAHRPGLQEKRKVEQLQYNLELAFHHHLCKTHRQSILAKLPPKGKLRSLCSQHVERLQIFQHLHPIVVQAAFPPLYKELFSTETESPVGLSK
human RORγt ligand binding domain (RORγt LBD), sequence (P51449 other isoform, or with tags, fused parts or gaps): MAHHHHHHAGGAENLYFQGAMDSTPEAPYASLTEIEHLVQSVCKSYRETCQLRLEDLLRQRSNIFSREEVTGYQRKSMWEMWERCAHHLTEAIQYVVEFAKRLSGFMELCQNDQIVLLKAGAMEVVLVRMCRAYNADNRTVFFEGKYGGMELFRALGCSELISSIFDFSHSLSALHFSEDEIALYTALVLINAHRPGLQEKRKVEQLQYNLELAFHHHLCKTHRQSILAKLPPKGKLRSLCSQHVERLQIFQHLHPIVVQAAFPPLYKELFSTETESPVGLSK

| Compound | Kd [1] | inhibition at 3 µM [2, 3] | IC50 [2] | RORγt (FL) Reporter Assay B or C, % inhibition (value marked *) ([2]; Conditions B or C) | IC50 ([2]; Conditions B or C) | inhibition at 0.33 µM ([2]; at 0.33 μM compound concentration, read-out: RORγt (FL) Reporter Assay B or C, % inhibition) |
| --- | --- | --- | --- | --- | --- | --- |
| C[C@H]1CCCN1C(=O)c1nc(C(=O)NCC(C)(C)O)sc1-c1cnc(NC(C)(C)C)cc1C(F)F [Example 265, 5-[6-(tert-Butylamino)-4-(difluoromethyl)-3-pyridyl]-N-(2-hydroxy-2-methyl-propyl)-4-[(2S)-2-methylpyrrolidine-1-carbonyl]thiazole-2-carboxamide] | 6.4 nM | 98% | 75 nM |  |  |  |
| C[C@H](Nc1cc(C(F)F)c(-c2sc(C(=O)N[C@@H](C)C(C)(C)O)nc2C(=O)N2CC(F)(F)C[C@@H]2C)cn1)C1CC1 [Example 193, 5-(6-(((S)-1-Cyclopropylethyl)amino)-4-(difluoromethyl)pyridine-3-yl)-4-((S)-4,4-difluoro-2-methylpyrrolidine-1-carbonyl)-N—((S)-3-hydroxy-3-methylbutan-2-yl)thiazole-2-carboxamide] | 2.6 nM |  |  | 82* % | 32 nM |  |
| C[C@H]1CCCN1C(=O)c1nc(C(=O)N[C@@H]2CC[C@H]2O)sc1-c1cnc(NC(C)(C)C)cc1C(F)F (relative stereo) [Example 403, 5-(6-(tert-Butylamino)-4-(difluoromethyl)pyridin-3-yl)-N-(1R*,2R*)-2-hydroxycyclobutyl)-4-((S)-2-methylpyrrolidine-1-carbonyl)thiazole-2-carboxamide] | 4.5 nM | 108% | 36 nM |  |  |  |
| C[C@H](NC(=O)c1nc(C(=O)N2CCC[C@@H]2C)c(-c2cnc(NC3(C)CCC3)cc2C(F)F)s1)C(C)(C)O [Example 322, 5-(4-(Difluoromethyl)-6-((1-methylcyclobutyl)amino)pyridin-3-yl)-N—((S)-3-hydroxy-3-methylbutan-2-yl)-4-((S)-2-methylpyrrolidine-1-carbonyl)thiazole-2-carboxamide] | 1.8 nM | 106% | 49 nM |  |  |  |
| C[C@H]1CC(F)(F)CN1C(=O)c1nc(C(=O)N[C@H]2C[C@H](O)C2)sc1-c1cnc(NC(C)(C)C)cc1C(F)F [Example 429, 5-(6-(tert-Butylamino)-4-(difluoromethyl)pyridin-3-yl)-4-((S)-4,4-difluoro-2-methylpyrrolidine-1-carbonyl)-N-((1r,3S)-3-hydroxycyclobutyl)thiazole-2-carboxamide] | 2.5 nM |  | 9.5 nM |  |  | 113% |
| C[C@H]1CCCN1C(=O)c1nc(C(=O)N[C@H]2CC[C@H](O)C2)sc1-c1cnc(NC(C)(C)C)cc1C(F)(F)F [Example 361, 5-[6-(tert-Butylamino)-4-(trifluoromethyl)-3-pyridyl]-N-[(1S,3S)-3-hydroxycyclopentyl]-4-[(2S)-2-methylpyrrolidine-1-carbonyl]thiazole-2-carboxamide] | 0.37 nM | 105% | 25 nM |  |  |  |
| C[C@H]1CCCN1C(=O)c1nc(C(=O)N[C@H]2C[C@H](O)C2)sc1-c1cnc(N[C@H](C2CC2)C(F)(F)F)cc1C(F)F [Example 320, 5-(6-(((R)-1-Cyclopropyl-2,2,2-trifluoroethyl)amino)-4-(difluoromethyl)pyridin-3-yl)-N-((1r,3S)-3-hydroxycyclobutyl)-4-((S)-2-methylpyrrolidine-1-carbonyl)thiazole-2-carboxamide] | 3.8 nM | 98% | 46 nM |  |  |  |
| C[C@H]1CCCN1C(=O)c1nc(C(=O)NC2CCC2O)sc1-c1cnc(NC(C)(C)C)cc1C(F)(F)F (stereo partly drawn) [Example 369, 5-(6-(tert-Butylamino)-4-(trifluoromethyl)pyridin-3-yl)-N-(trans-2-hydroxycyclobutyl)-4-((S)-2-methylpyrrolidine-1-carbonyl)thiazole-2-carboxamide] | 0.7 nM | 106% | 6.6 nM |  |  |  |
| CC[C@H](Nc1cc(C(F)F)c(-c2sc(C(=O)N3CC4CC(C3)O4)nc2C(=O)N2CCC[C@@H]2C)cn1)C(F)(F)F [Example 392, [5-[4-(Difluoromethyl)-6-[[(1S)-1-(trifluoromethyl)propyl]amino]-3-pyridyl]-2-(6-oxa-3-azabicyclo[3.1.1]heptane-3-carbonyl)thiazol-4-yl]-[(2S)-2-methylpyrrolidin-1-yl]methanone] | 44 nM | 102% | 130 nM |  |  |  |
| C[C@H]1CCCN1C(=O)c1nc(C(=O)NCC(C)(C)O)sc1-c1cnc(N[C@@H]2CCCC2(F)F)cc1C(F)(F)F (single isomer, unassigned) [Example 280, 5-(6-(((R*)-2,2-Difluorocyclopentyl)amino)-4-(trifluoromethyl)pyridin-3-yl)-N-(2-hydroxy-2-methylpropyl)-4-((S)-2-methylpyrrolidine-1-carbonyl)thiazole-2-carboxamide] | 4.9 nM | 110% | 16 nM |  |  |  |
| C[C@H]1CCCCN1C(=O)c1nc(C(=O)NCC(C)(C)O)sc1-c1cnc(NC2(C)CCC2)cc1C(F)(F)F [Example 81, (S)—N-(2-Hydroxy-2-methylpropyl)-5-(6-((1-methylcyclobutyl)amino)-4-(trifluoromethyl)pyridin-3-yl)-4-(2-methylpiperidine-1-carbonyl)thiazole-2-carboxamide] | 0.17 nM |  |  | 105* % | 9.3 nM |  |
| C[C@H]1CCCN1C(=O)c1nc(C(=O)NCC(C)(C)O)sc1-c1cnc(N[C@H](C)C(C)(C)C)cc1C(F)F [Example 298, 5-(4-(Difluoromethyl)-6-(((R)-3,3-dimethylbutan-2-yl)amino)pyridin-3-yl)-N-(2-hydroxy-2-methylpropyl)-4-((S)-2-methylpyrrolidine-1-carbonyl)thiazole-2-carboxamide] | 3.4 nM | 99% | 7.7 nM |  |  |  |
| C[C@H]1CCCN1C(=O)c1nc(C(=O)NC[C@@H](O)CO)sc1-c1cnc(NC(C)(C)C)cc1C(F)(F)F [Example 345, 5-[6-(tert-Butylamino)-4-(trifluoromethyl)-3-pyridyl]-N-[(2R)-2,3-dihydroxypropyl]-4-[(2S)-2-methylpyrrolidine-1-carbonyl]thiazole-2-carboxamide] | 16 nM | 111% | 63 nM |  |  |  |
| C[C@H]1CCCN1C(=O)c1nc(C(=O)N2CC(C)(O)C2)sc1-c1cnc(NC(C)(C)C)cc1C(F)(F)F [Example 268, [5-[6-(tert-Butylamino)-4-(trifluoromethyl)-3-pyridyl]-2-(3-hydroxy-3-methyl-azetidine-1-carbonyl)thiazol-4-yl]-[(2S)-2-methylpyrrolidin-1-yl]methanone] | 2.4 nM | 109% | 110 nM |  |  |  |
| C[C@H]1CCCN1C(=O)c1nc(C(=O)NCC(C)(C)O)sc1-c1cnc(NCC2(C)CC2)cc1C(F)(F)F [Example 278, N-(2-Hydroxy-2-methyl-propyl)-5-[6-[(1-methylcyclopropyl)methylamino]-4-(trifluoromethyl)-3-pyridyl]-4-[(2S)-2-methylpyrrolidine-1-carbonyl]thiazole-2-carboxamide] | 7.4 nM | 100% | 40 nM |  |  |  |
| C[C@H]1CC(F)(F)CN1C(=O)c1nc(C(=O)NCC(C)(C)O)sc1-c1cnc(NC2(C(F)(F)F)CCC2)cc1C(F)(F)F [Example 100, (S)-4-(4,4-Difluoro-2-methylpyrrolidine-1-carbonyl)-N-(2-hydroxy-2-methylpropyl)-5-(4-(trifluoromethyl)-6-((1-(trifluoromethyl)cyclobutyl)amino)pyridin-3-yl)thiazole-2-carboxamide] | 0.39 nM |  |  | 108* % | 14 nM |  |
| C[C@H]1CCCN1C(=O)c1nc(C(=O)NCC(C)(C)O)sc1-c1cnc(N[C@H](C)C(F)(F)F)cc1C(F)(F)F [Example 54, N-(2-Hydroxy-2-methylpropyl)-4-((S)-2-methylpyrrolidine-1-carbonyl)-5-(4-(trifluoromethyl)-6-(((R)-1,1,1-trifluoropropan-2-yl)amino)pyridin-3-yl)thiazole-2-carboxamide] | 12 nM |  |  | 109* % | 46 nM |  |
| CC[C@H](Nc1cc(C(F)F)c(-c2sc(C(=O)N[C@H](C)C(C)(C)O)nc2C(=O)N2C3CCC2CC3)cn1)C(F)(F)F [Example 242, 4-((1s,4s)-7-Azabicyclo[2.2.1]heptane-7-carbonyl)-5-[4-(difluoromethyl)-6-[[(1S)-1-(trifluoromethyl)propyl]amino]-3-pyridyl]-N-[(1R)-2-hydroxy-1,2-dimethyl-propyl]thiazole-2-carboxamide] | 2.8 nM |  |  | 86* % | 15 nM |  |
| [2H]C([2H])([2H])C(O)(CNC(=O)c1nc(C(=O)N2CCC[C@@H]2C)c(-c2cnc(NC(C)(C)C)cc2C(F)(F)F)s1)C([2H])([2H])[2H] [Example 180, (S)-5-(6-(tert-Butylamino)-4-(trifluoromethyl)pyridine-3-yl)-N-(2-hydroxy-2-(methyl-d3)propyl-3,3,3-d3)-4-(2-methylpyrrolidine-1-carbonyl)thiazole-2-carboxamide] | 1.8 nM |  |  | 113* % | 20 nM |  |
| CC[C@H](Nc1cc(C(F)F)c(-c2sc(C(=O)NCC(C)(C)O)nc2C(=O)N2CCC[C@@H]2C)cn1)C1CC1 (relative stereo) [Example 166] | 4.7 nM |  |  | 94* % | 27 nM |  |
